In ChEMBL document CHEMBL1201862, “PubChem BioAssay data set” (2004):
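1) Cells in 96-well plates. 2) Compound, 48 h, 5 concentrations. 3) Linear interpolation between surrounding doses. 4) Unreached endpoint = highest concentration. The concentration for 50% growth inhibition is given as GI50.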 The source made the active and inactive calls. No stated cut-off is given here; in the data, active = GI50 up to about 1.1 µM and inactive = higher.

Tests used:
Experiment in all cases: inhibition of tumour cell growth, NCI panel, 48 h
HCT-116 = tested on: HCT-116
RXF 393 = tested on: RXF 393
NCI-H23 = tested on: NCI-H23
SK-OV-3 = tested on: SK-OV-3
LOX IMVI = tested on: LOX IMVI
CCRF-CEM = tested on: CCRF-CEM
SN12C = tested on: SN12C
COLO 205 = tested on: COLO 205
TK-10 = tested on: TK-10
EKVX = tested on: EKVX
M14 = tested on: M14
UACC-62 = tested on: UACC-62
HT-29 = tested on: HT-29
NCI-H226 = tested on: NCI-H226
HOP-62 = tested on: HOP-62
HCC 2998 = tested on: HCC 2998
HCT-15 = tested on: HCT-15
U-251 = tested on: U-251
A498 = tested on: A498

Row | Structure (SMILES) | GI50 (HCT-116) | GI50 (RXF 393) | GI50 (NCI-H23) | GI50 (SK-OV-3) | GI50 (LOX IMVI) | GI50 (CCRF-CEM) | GI50 (SN12C) | GI50 (COLO 205) | GI50 (TK-10) | GI50 (EKVX) | GI50 (M14) | GI50 (UACC-62) | GI50 (HT-29) | GI50 (NCI-H226) | GI50 (HOP-62) | GI50 (HCC 2998) | GI50 (HCT-15) | GI50 (U-251) | GI50 (A498)
1 | C[C@H](C(=O)C12CC3CC(CC(C3)C1)C2)[C@H](O)c1ccccc1 | 16.1 µM (inactive) | 20.1 µM (inactive) | 36.7 µM (inactive) | 83.9 µM (inactive) | 17.5 µM (inactive) | 32.5 µM (inactive) | 19.5 µM (inactive) | 15 µM (inactive) | 36.1 µM (inactive) | 43.7 µM (inactive) | 29.6 µM (inactive) | 28.4 µM (inactive) | 18.7 µM (inactive) | 16.8 µM (inactive) | – | – | – | – | –
2 | Cc1nc(Nc2ccccc2)sc1C(=O)NNc1ccc([N+](=O)[O-])cc1[N+](=O)[O-] | 42.4 µM (inactive) | 35.2 µM (inactive) | 17.5 µM (inactive) | 40.6 µM (inactive) | 21.4 µM (inactive) | 14.2 µM (inactive) | 49 µM (inactive) | 30.3 µM (inactive) | 52.5 µM (inactive) | 18.9 µM (inactive) | 38.9 µM (inactive) | 5.94 µM (inactive) | 35 µM (inactive) | 85.5 µM (inactive) | 41.9 µM (inactive) | 43.7 µM (inactive) | 26.2 µM | 38.6 µM (inactive) | –
3 | Cn1c2c(c3ccccc31)CCN(CCCCN1CCc3c(n(C)c4ccccc34)C1=O)C2 | > 100 µM (inactive) | > 100 µM (inactive) | > 100 µM (inactive) | 92.7 µM (inactive) | – | > 100 µM (inactive) | > 100 µM (inactive) | > 100 µM (inactive) | > 100 µM (inactive) | > 100 µM (inactive) | > 100 µM (inactive) | > 100 µM (inactive) | > 100 µM (inactive) | – | > 100 µM (inactive) | – | > 100 µM | > 100 µM (inactive) | > 100 µM (inactive)
4 | CC(=O)OC1CCn2nnc(COC(=O)NC(C)C)c21 (configuration not stated) | > 100 µM (inactive) | > 100 µM (inactive) | > 100 µM (inactive) | > 100 µM (inactive) | – | – | > 100 µM (inactive) | – | > 100 µM (inactive) | > 100 µM (inactive) | > 100 µM (inactive) | > 100 µM (inactive) | > 100 µM (inactive) | > 100 µM (inactive) | – | > 100 µM (inactive) | > 100 µM | > 100 µM (inactive) | –
5 | Cc1cc([N+](=O)[O-])c(C)c2c1[nH]c1ccc(/C(CCC3CCCC3)=N\N)cc12 | 9.89 µM (inactive) | – | 14.7 µM (inactive) | – | 15.4 µM (inactive) | 10.4 µM (inactive) | 14.8 µM (inactive) | 17.5 µM (inactive) | 14.2 µM (inactive) | 17.4 µM (inactive) | 17.6 µM (inactive) | – | 24 µM (inactive) | 20.8 µM (inactive) | 18.4 µM (inactive) | 17 µM (inactive) | 14.2 µM | – | –
6 | CC(=O)C(=[N+]=[N-])C(=O)N(C)CCC#N | > 10 µM (inactive) | > 10 µM (inactive) | > 10 µM (inactive) | > 10 µM (inactive) | > 10 µM (inactive) | > 10 µM (inactive) | > 10 µM (inactive) | – | > 10 µM (inactive) | > 10 µM (inactive) | > 10 µM (inactive) | 3.58 µM (inactive) | > 10 µM (inactive) | > 10 µM (inactive) | > 10 µM (inactive) | – | > 10 µM | > 10 µM (inactive) | > 10 µM (inactive)
7 | COc1ccc2nccc(C3OC(=O)N4CCC(=O)CC34)c2c1 (configuration not stated) | > 100 µM (inactive) | > 100 µM (inactive) | > 100 µM (inactive) | – | > 100 µM (inactive) | > 100 µM (inactive) | > 100 µM (inactive) | > 100 µM (inactive) | > 100 µM (inactive) | > 100 µM (inactive) | > 100 µM (inactive) | > 100 µM (inactive) | > 100 µM (inactive) | > 100 µM (inactive) | > 100 µM (inactive) | – | > 100 µM | > 100 µM (inactive) | > 100 µM (inactive)
8 | CC[P+](C)(C)CC | > 100 µM (inactive) | > 100 µM (inactive) | > 100 µM (inactive) | > 100 µM (inactive) | > 100 µM (inactive) | > 100 µM (inactive) | > 100 µM (inactive) | > 100 µM (inactive) | > 100 µM (inactive) | > 100 µM (inactive) | > 100 µM (inactive) | > 100 µM (inactive) | > 100 µM (inactive) | > 100 µM (inactive) | > 100 µM (inactive) | > 100 µM (inactive) | > 100 µM | > 100 µM (inactive) | –
9 | C[C@H](NC(=O)n1c2ccccc2c2ccccc21)C(=O)O | > 100 µM (inactive) | > 100 µM (inactive) | > 100 µM (inactive) | > 100 µM (inactive) | > 100 µM (inactive) | > 100 µM (inactive) | > 100 µM (inactive) | > 100 µM (inactive) | > 100 µM (inactive) | > 100 µM (inactive) | – | > 100 µM (inactive) | > 100 µM (inactive) | > 100 µM (inactive) | > 100 µM (inactive) | > 100 µM (inactive) | > 100 µM | > 100 µM (inactive) | –
10 | CC12CC(Sc3ccccc3N1)c1ccccc1O2 (configuration not stated) | 15.2 µM (inactive) | 15.9 µM (inactive) | 15.7 µM (inactive) | 33.7 µM (inactive) | 13.7 µM (inactive) | 12.1 µM (inactive) | 18.8 µM (inactive) | 16.2 µM (inactive) | 28.9 µM (inactive) | 18.6 µM (inactive) | 18.3 µM (inactive) | 17 µM (inactive) | 19.7 µM (inactive) | – | 19.6 µM (inactive) | 17.1 µM (inactive) | 15.6 µM | 13.2 µM (inactive) | 18.5 µM (inactive)
11 | O=C(O)COc1ccc2c3c1C(=O)CCC3CO2 (configuration not stated) | > 100 µM (inactive) | – | > 100 µM (inactive) | > 100 µM (inactive) | > 100 µM (inactive) | > 100 µM (inactive) | > 100 µM (inactive) | > 100 µM (inactive) | > 100 µM (inactive) | > 100 µM (inactive) | > 100 µM (inactive) | > 100 µM (inactive) | > 100 µM (inactive) | – | > 100 µM (inactive) | > 100 µM (inactive) | > 100 µM | > 100 µM (inactive) | > 100 µM (inactive)
12 | CC(C(=O)N1C(=O)N(C(=O)C(C)C(O)c2ccccc2)C(c2ccccc2)C1c1ccccc1)C(O)c1ccccc1 (configuration not stated) | 6.21 µM (inactive) | 6.21 µM (inactive) | 16.5 µM (inactive) | – | 11.9 µM (inactive) | 5.56 µM (inactive) | 12.9 µM (inactive) | 13.3 µM (inactive) | 22.6 µM (inactive) | – | 10.5 µM (inactive) | 10.5 µM (inactive) | 5 µM (inactive) | 12.4 µM (inactive) | 12.3 µM (inactive) | 20.9 µM (inactive) | 15.5 µM | 10.4 µM (inactive) | –
13 | C=CCOCn1ccc(N)nc1=O | > 100 µM (inactive) | – | > 100 µM (inactive) | > 100 µM (inactive) | > 100 µM (inactive) | > 100 µM (inactive) | > 100 µM (inactive) | > 100 µM (inactive) | > 100 µM (inactive) | > 100 µM (inactive) | > 100 µM (inactive) | > 100 µM (inactive) | > 100 µM (inactive) | > 100 µM (inactive) | > 100 µM (inactive) | > 100 µM (inactive) | > 100 µM | – | –
